Experimental data published in paper PMC3203607 (Nucleic Acids Research, 2011).

What was measured:
Assay type in all cases: binding
[1] = target: T1, Ascaris eIF4E-3 (Ascaris suum, UniProt Q6PKX2); test: fluorescence titration; details: read-out: KD (μM) / Ascaris eIF4E-3; 50 mM HEPES/KOH pH 7.20, 200 mM KCl, 1 mM DTT, 0.5 mM EDTA, 20 °C
T1 sequence (Q6PKX2 1-236): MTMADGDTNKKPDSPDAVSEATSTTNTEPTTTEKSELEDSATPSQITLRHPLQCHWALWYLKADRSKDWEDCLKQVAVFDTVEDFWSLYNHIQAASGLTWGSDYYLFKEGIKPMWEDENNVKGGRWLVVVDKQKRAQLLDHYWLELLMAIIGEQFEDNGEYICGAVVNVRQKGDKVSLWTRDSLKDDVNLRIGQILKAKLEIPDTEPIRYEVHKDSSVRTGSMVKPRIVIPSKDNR

[2] = target: T2, Ascaris eIF4E-3 (Ascaris suum, UniProt Q6PKX2, E116D); test: isothermal titration calorimetry; details: 20 mM HEPES pH 7.4, 1 mM EDTA, 100 mM KCl, 20 °C
T2 sequence (Q6PKX2 1-236 E116D): T1 sequence (Q6PKX2 1-236)

[3] = target: Human eIF4E (Homo sapiens, UniProt P06730); test: isothermal titration calorimetry
Human eIF4E, sequence (P06730 whole entry): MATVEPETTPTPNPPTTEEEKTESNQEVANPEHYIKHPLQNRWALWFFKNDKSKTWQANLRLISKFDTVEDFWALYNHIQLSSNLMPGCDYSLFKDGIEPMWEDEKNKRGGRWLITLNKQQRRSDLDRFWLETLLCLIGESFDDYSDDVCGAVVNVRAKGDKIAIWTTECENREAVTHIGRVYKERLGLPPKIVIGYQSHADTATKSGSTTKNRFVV

[4] = target: T1, Ascaris eIF4E-3; test: isothermal titration calorimetry; details: 20 mM HEPES pH 7.4, 1 mM EDTA, 100 mM KCl, 20 °C; single-site model
[5] = target: T3, Ascaris eIF4E-3 (49–236) (Ascaris suum, UniProt Q6PKX2); test: isothermal titration calorimetry
T3 sequence (Q6PKX2 49-236): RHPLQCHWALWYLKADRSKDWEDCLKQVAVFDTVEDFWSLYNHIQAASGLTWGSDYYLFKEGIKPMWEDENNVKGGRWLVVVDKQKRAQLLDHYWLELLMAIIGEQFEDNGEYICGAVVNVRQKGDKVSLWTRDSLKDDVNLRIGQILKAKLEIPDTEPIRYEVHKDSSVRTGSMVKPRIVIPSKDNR

[6] = target: Human eIF4E (28–217) (Homo sapiens, UniProt P06730); test: fluorescence titration
Human eIF4E (28–217), sequence (P06730 28-217): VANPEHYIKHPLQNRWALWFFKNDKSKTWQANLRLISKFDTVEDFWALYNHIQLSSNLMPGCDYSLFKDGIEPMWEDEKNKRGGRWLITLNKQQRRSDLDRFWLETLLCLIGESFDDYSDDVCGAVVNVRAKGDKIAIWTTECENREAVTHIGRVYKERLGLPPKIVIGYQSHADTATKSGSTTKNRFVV

Kd [1] [µM]	Kd [6] [µM]	Structure (SMILES)	Kd [2] [µM]	Kd [3] [µM]	Kd [4] [µM]	Kd [5] [µM]
83 ± 14	–	Nc1nc2c(ncn2[C@@H]2O[C@H](COP(=O)(O)OP(=O)(O)OP(=O)(O)O)[C@@H](O)[C@H]2O)c(=O)[nH]1 [GTP]	–	–	–	–
–	–	CN(C)c1nc2c(c(=O)[nH]1)[n+](C)cn2[C@@H]1O[C@H](COP(=O)(O)OP(=O)(O)OP(=O)(O)O)[C@@H](O)[C@H]1O [m^2,2,7GTP]	7 ± 0.1	4.56 ± 2.1	8.4 ± 1	12.2 ± 3.9
–	3.1 ± 1.1	CN(C)c1nc2c(c(=O)[nH]1)[n+](C)cn2[C@@H]1O[C@H](COP(=O)(O)OP(=O)(O)OP(=O)(O)OC[C@H]2O[C@@H](n3cnc4c(=O)[nH]c(N)nc43)[C@H](O)[C@@H]2O)[C@@H](O)[C@H]1O [m^2,2,7GpppG]	–	–	–	–
–	–	C[n+]1cn([C@@H]2O[C@H](COP(=O)(O)OP(=O)(O)OP(=O)(O)O)[C@@H](O)[C@H]2O)c2nc(N)[nH]c(=O)c21 [m^7GTP]	1.98 ± 0.2	–	0.24 ± 0.04	0.17 ± 0.05
0.787 ± 0.025	–	C[n+]1cn([C@@H]2O[C@H](COP(=O)(O)OP(=O)(O)OP(=O)(O)OC[C@H]3O[C@@H](n4cnc5c(=O)[nH]c(N)nc54)[C@H](O)[C@@H]3O)[C@@H](O)[C@H]2O)c2nc(N)[nH]c(=O)c21 [m^7GpppG]	–	–	–	0.75 ± 0.19
